According to article PMC6397271 (Scientific Reports, 2019):
Converted amounts (≈) assume the structure as drawn. Like-named read-outs stand apart in the source and are kept apart here.

Tests used:
S. aureus MRSA 12673 = test: microbe, parasite or virus in culture; type: cell-based, Staphylococcus aureus; details: for MIC: raw MIC
Description: (§1) Three bacterial strains of MRSA (N315, 12673, 6347) and two of Enterococcus spp. (E. faecium, E. faecalis) were used. With respect to MRSA, N315 represented a reference Van-susceptible strain (GenBank GCA_00000645.1) isolated from a patient while 12673 (Van-intermediately susceptible) and 6347 (a h-VISA which appears at frequency of <10^−5 to 10^−6 is composed of two subpopulations of bacteria: one susceptible and one intermediately resistant)[38] were clinical strains obtained from patients of The Clinical University Centre of Gdańsk (UCK). […] The clinical strain isolates originated from the collection of the Department of Pharmaceutical Technology and Biochemistry, Faculty of Chemistry, Gdańsk University of Technology.
(§2) The strains were grown in Mueller-Hinton broth (MH cation-adjusted, Becton Dickinson) or Brain Heart Infusion broth (BHI, Becton Dickinson), respectively. The cultivation was carried out in an aerobic atmosphere at 37 °C for 24 hours and, afterwards, the bacterial cultures were diluted in geometric progression with a proper broth. Next, 100 µl of each dilution was inoculated in an agar plate and incubated at 37 °C for 24 h. The next procedures included determination of Colony Forming Units (CFU)/ml and minimal inhibitory concentration (MIC) of the compounds in question. The latter procedure was carried out according to the microbroth dilution technique using 96-well plates. The MICs were evaluated by using the metabolic assay based on the resazurin dye. The assay was performed in triplicates.

S. aureus MRSA N315 = test: microbe, parasite or virus in culture; type: cell-based, Staphylococcus aureus
Description: as §1, §2

[1] = system: S. aureus MRSA hetero-VISA 6347; test: microbe, parasite or virus in culture; type: cell-based, Staphylococcus aureus; details: for MIC: raw MIC
Description: as §1, §2

[2] = system: Enterococcus faecalis 3937158; test: microbe, parasite or virus in culture; type: cell-based; details: for MIC: raw MIC
Description: as §1, §2

[3] = system: Enterococcus faecium 3934825; test: microbe, parasite or virus in culture; type: cell-based; details: for MIC: raw MIC
Description: as §1, §2

sheep erythrocytes = test: Erythrocyte lysis assay; type: cell-based; details: 37 °C, 1 hour, A450 nm; for cell lysis (haemolysis): 10^8 cells/ml, vs 4% Triton X-100, triplicates
Description: The protocol of the lysis assay is presented below.
To obtain sheep erythrocytes, 5 ml of fresh blood was centrifuged at 1000 × g for 10 min and washed 3 times with 0.9% NaCl. Cell suspension (final concentration of 10^8 cells/ml) in a volume of 75 µl was added to each well of the 96-well microtiter plate and incubated at 37 °C in the presence of the tested compounds. The range of their concentrations was 100–0.049 µM (diluted in saline solution), which included that of MIC values for the tested strains of the bacteria.
Plates with samples were incubated at 37 °C for 1 hour and then centrifuged at 1000 × g for 10 min to separate the unlysed erythrocytes. Next, the supernatant was transferred to a new plate. The absorbance (A) was measured spectrophotometrically at 450 nm of wavelength. The experiments were performed in triplicates.
The haemolysis percentage was calculated according to the equation presented by Sharma et al.[43]. The percentage of haemolysis = [(A450nm of test compound treated sample-A450nm of buffer treated sample)/(A450nm of 4%TritonX-100 treated samples-A450nm of buffer treated sample)] × 100.

[4] = first block, test a, repetition 1, read-out: MIC1a
[5] = first block, test a, repetition 2, read-out: MIC2a
[6] = first block, test a, repetition 3, read-out: MIC3a
[7] = first block, test b, repetition 1, read-out: MIC1b
[8] = first block, test b, repetition 2, read-out: MIC2b
[9] = first block, test b, repetition 3, read-out: MIC3b
[10] = test a, repetition 1, read-out: MIC1a
[11] = test a, repetition 2, read-out: MIC2a
[12] = test a, repetition 3, read-out: MIC3a
[13] = test b, repetition 1, read-out: MIC1b
[14] = test b, repetition 2, read-out: MIC2b
[15] = test b, repetition 3, read-out: MIC3b
[16] = same test as μM value, mean ± SD

## CC[C@H](C)[C@H](NC(=O)[C@H](CCCCN)NC(=O)[C@H](CCCCN)NC(=O)[C@H](C)NC(=O)[C@H](CC(C)C)NC(=O)[C@H](C)NC(=O)[C@H](C)NC(=O)[C@H](CC(C)C)NC(=O)[C@H](C)NC(=O)[C@H](CCCCN)NC(=O)[C@H](CC(C)C)NC(=O)[C@H](CC(N)=O)NC(=O)[C@@H](NC(=O)[C@H](CCCCN)NC(=O)CNC(=O)[C@H](CC(C)C)NC(=O)[C@H](CC(C)C)NC(=O)[C@H](Cc1ccc(O)cc1)NC(=O)CNC(=O)[C@H](C)NC(=O)c1cn(CCOCCOCCOCCNC(=O)[C@H]2NC(=O)[C@H]3NC(=O)[C@H](NC(=O)[C@@H]4NC(=O)[C@H](CC(N)=O)NC(=O)[C@H](NC(=O)[C@@H](CC(C)C)NC)[C@H](O)c5ccc(c(Cl)c5)Oc5cc4cc(c5O[C@@H]4O[C@H](CO)[C@@H](O)[C@H](O)[C@H]4O[C@H]4C[C@](C)(N)[C@H](O)[C@H](C)O4)Oc4ccc(cc4Cl)[C@H]3O)c3ccc(O)c(c3)-c3c(O)cc(O)cc32)nn1)[C@@H](C)CC)C(=O)N[C@@H](CC(C)C)C(N)=O [conjugate I, Van-PEG3-TP10]
S. aureus MRSA 12673; [4]
  MIC: 1.56 µM (≈ 6.06 µg/mL)
S. aureus MRSA 12673; [5]
  MIC: 3.12 µM (≈ 12.1 µg/mL)
S. aureus MRSA 12673; [6]
  MIC: 1.56 µM (≈ 6.06 µg/mL)
S. aureus MRSA 12673; [7]
  MIC: 1.56 µM (≈ 6.06 µg/mL)
S. aureus MRSA 12673; [8]
  MIC: 3.12 µM (≈ 12.1 µg/mL)
S. aureus MRSA 12673; [9]
  MIC: 3.12 µM (≈ 12.1 µg/mL)
S. aureus MRSA 12673; [10]
  MIC: 6.06 µM (≈ 23.5 µg/mL)
S. aureus MRSA 12673; [11]
  MIC: 6.06 µM (≈ 23.5 µg/mL)
S. aureus MRSA 12673; [12]
  MIC: 6.06 µM (≈ 23.5 µg/mL)
S. aureus MRSA 12673; [13]
  MIC: 6.06 µM (≈ 23.5 µg/mL)
S. aureus MRSA 12673; [14]
  MIC: 12.12 µM (≈ 47.1 µg/mL)
S. aureus MRSA 12673; [15]
  MIC: 12.12 µM (≈ 47.1 µg/mL)
S. aureus MRSA 12673; [16]
  MIC in (μg/ml): 6.1 ± 3.1 µg/mL (≈ 1.57 µM)
S. aureus MRSA N315; microbroth dilution, 96-well, resazurin, 37 °C, 24 h, mean ± SD, at least three independent experiments in triplicates
  MIC: 1.6 ± 0.9 µM (≈ 6.21 µg/mL)
S. aureus MRSA N315; microbroth dilution, 96-well, resazurin, 37 °C, 24 h, mean ± SD, at least three independent experiments in triplicates, read-out: MIC
  MIC: 1.6 µM (≈ 6.21 µg/mL)
S. aureus MRSA N315; raw MIC, first block, test a, repetition 1, read-out: MIC1a
  MIC: 1.56 µM (≈ 6.06 µg/mL)
S. aureus MRSA N315; raw MIC, first block, test a, repetition 2, read-out: MIC2a
  MIC: 3.12 µM (≈ 12.1 µg/mL)
S. aureus MRSA N315; raw MIC, first block, test a, repetition 3, read-out: MIC3a
  MIC: 1.56 µM (≈ 6.06 µg/mL)
S. aureus MRSA N315; raw MIC, first block, test b, repetition 1, read-out: MIC1b
  MIC: 3.125 µM (≈ 12.1 µg/mL)
S. aureus MRSA N315; raw MIC, first block, test b, repetition 2, read-out: MIC2b
  MIC: 1.56 µM (≈ 6.06 µg/mL)
S. aureus MRSA N315; raw MIC, first block, test b, repetition 3, read-out: MIC3b
  MIC: 1.56 µM (≈ 6.06 µg/mL)
S. aureus MRSA N315; raw MIC, test a, repetition 1, read-out: MIC1a
  MIC: 6.06 µM (≈ 23.5 µg/mL)
S. aureus MRSA N315; raw MIC, test a, repetition 2, read-out: MIC2a
  MIC: 12.12 µM (≈ 47.1 µg/mL)
S. aureus MRSA N315; raw MIC, test a, repetition 3, read-out: MIC3a
  MIC: 6.06 µM (≈ 23.5 µg/mL)
S. aureus MRSA N315; raw MIC, test b, repetition 1, read-out: MIC1b
  MIC: 6.06 µM (≈ 23.5 µg/mL)
S. aureus MRSA N315; raw MIC, test b, repetition 2, read-out: MIC2b
  MIC: 6.06 µM (≈ 23.5 µg/mL)
S. aureus MRSA N315; raw MIC, test b, repetition 3, read-out: MIC3b
  MIC: 6.06 µM (≈ 23.5 µg/mL)
S. aureus MRSA N315; [16]
  MIC in (μg/ml): 6.1 ± 2.5 µg/mL (≈ 1.57 µM)
[1]; [4]
  MIC: 1.56 µM (≈ 6.06 µg/mL)
[1]; [5]
  MIC: 1.56 µM (≈ 6.06 µg/mL)
[1]; [6]
  MIC: 0.78 µM (≈ 3.03 µg/mL)
[1]; [7]
  MIC: 1.56 µM (≈ 6.06 µg/mL)
[1]; [8]
  MIC: 1.56 µM (≈ 6.06 µg/mL)
[1]; [9]
  MIC: 1.56 µM (≈ 6.06 µg/mL)
[1]; [10]
  MIC: 6.06 µM (≈ 23.5 µg/mL)
[1]; [11]
  MIC: 6.06 µM (≈ 23.5 µg/mL)
[1]; [12]
  MIC: 3.03 µM (≈ 11.8 µg/mL)
[1]; [13]
  MIC: 6.06 µM (≈ 23.5 µg/mL)
[1]; [14]
  MIC: 6.06 µM (≈ 23.5 µg/mL)
[1]; [15]
  MIC: 6.06 µM (≈ 23.5 µg/mL)
[1]; [16]
  MIC in (μg/ml): 6.1 ± 1.2 µg/mL (≈ 1.57 µM)
[2]; [4]
  MIC: 6.25 µM (≈ 24.3 µg/mL)
[2]; [5]
  MIC: 3.1 µM (≈ 12 µg/mL)
[2]; [6]
  MIC: 6.25 µM (≈ 24.3 µg/mL)
[2]; [7]
  MIC: 6.25 µM (≈ 24.3 µg/mL)
[2]; [8]
  MIC: 6.25 µM (≈ 24.3 µg/mL)
[2]; [9]
  MIC: 3.1 µM (≈ 12 µg/mL)
[2]; [10]
  MIC: 24.27 µM (≈ 94.2 µg/mL)
[2]; [11]
  MIC: 12.14 µM (≈ 47.1 µg/mL)
[2]; [12]
  MIC: 24.27 µM (≈ 94.2 µg/mL)
[2]; [13]
  MIC: 24.27 µM (≈ 94.2 µg/mL)
[2]; [14]
  MIC: 24.27 µM (≈ 94.2 µg/mL)
[2]; [15]
  MIC: 12.14 µM (≈ 47.1 µg/mL)
[2]; [16]
  MIC in (μg/ml): 24.3 ± 6.3 µg/mL (≈ 6.26 µM)
[3]; [4]
  MIC: 50 µM (≈ 194 µg/mL)
[3]; [5]
  MIC: 50 µM (≈ 194 µg/mL)
[3]; [6]
  MIC: 50 µM (≈ 194 µg/mL)
[3]; [7]
  MIC: 25 µM (≈ 97.1 µg/mL)
[3]; [8]
  MIC: 50 µM (≈ 194 µg/mL)
[3]; [9]
  MIC: 50 µM (≈ 194 µg/mL)
[3]; [10]
  MIC: 194.2 µM (≈ 754 µg/mL)
[3]; [11]
  MIC: 194.2 µM (≈ 754 µg/mL)
[3]; [12]
  MIC: 194.2 µM (≈ 754 µg/mL)
[3]; [13]
  MIC: 97.1 µM (≈ 377 µg/mL)
[3]; [14]
  MIC: 194.2 µM (≈ 754 µg/mL)
[3]; [15]
  MIC: 194.2 µM (≈ 754 µg/mL)
[3]; [16]
  MIC in (μg/ml): 194.2 ± 39.6 µg/mL (≈ 50 µM)
Sheep erythrocytes; 12.5 µM
  cell lysis (haemolysis): 15%
Sheep erythrocytes; 100 µM
  cell lysis (haemolysis): 93%
Sheep erythrocytes; 6.25–0.78 μM
  hemolysis at MIC concentrations: lack of hemolysis
